Assay results taken from patent US20070191315A1, “Method for administering ibandronate” (priority 2006, published 2007).

System: metastatic bone pain
Test: Multicenter, randomized, active-controlled, double-blind trial of pain (BPI worst/average pain scales)
Type: in vivo
Settings: patients; ibandronic acid 6 mg IV over 15 min on Days 1, 2 and 3, then 50 mg orally daily from Day 22; 24 weeks; compared to placebo treatment
Procedure: A multicenter, randomized, active-controlled, double-blind, parallel groups trial is conducted. Patients are centrally randomized via an interactive voice response system (IVRS) to treatment either with ibandronic acid or zoledronic acid. Study treatment begins within 96 hours of randomization. Treatment continues for 24 weeks. Patients record their pain on the WORST PAIN and the AVERAGE PAIN scales of the BPI, as well as daily analgesic use, on a nightly basis. Patients record the degree to which their pain interferes with normal functioning and any opioid side-effects weekly. WHO Performance Status, quality of life based on the EORTC QLQ-C30 instrument and quality of life based on the FACT-BP, an instrument specifically designed to measure quality of life in patients with bone pain are recorded at Day 8 and Weeks 6, 12, 18 and 24 of the trial. Patients have skeletal surveys performed at Baseline and at Weeks 12 and 24 as part of the monitoring of SREs. Patients randomized to the ibandronic acid arm receive ibandronic acid 6 mg intravenously over 15 minutes on Days 1, 2 and 3 of the trial, followed by ibandronic acid 50 mg orally daily beginning on Day 22 of the study. Patients also receive a placebo infusion every 3-4 weeks, depending on the underlying chemotherapy regimens patients may be receiving. Patients who are not receiving chemotherapy receive placebo infusions every 3 weeks. […]

`CCCCCN(C)CCC(O)(P(=O)(O)O)P(=O)(O)O` [ibandronate, 3-(N-methyl-N-pentyl)amino-1-hydroxypropane-1,1-diphosphonic acid] was tested, and the pain scores was “significantly lower pain scores”.
